Data: US20210254101A1, “METHODS FOR TREATING SPINAL CORD INJURY” (THE CHILDREN'S MEDICAL CENTER CORPORATION, priority 2018, published 2021)

What was measured:
[1] = test system: mice with staggered lesions; assay: Basso Mouse Scale (BMS) open field locomotion after staggered T7/T10 lateral hemisections; type: in vivo
Experimental: A staggered lesion paradigm was optimized in which two lateral hemisections were performed at the thoracic (T) 7 and T10 levels simultaneously (FIGS. 1A and 1B), similar to the model previously described (Courtine 2008; van den Brand, 2012). The T10 lesion is a lateral hemisection that ends at the spinal cord midline, while the T7 lesion, contralateral to the T10 lesion, extends slightly beyond the midline (FIG. 1A). With this double hemisection procedure, all descending axons passing T10 are severed, leaving only those crossing the midline between T7 and T10 intact (FIG. 1C). Indeed, by immunohistochemistry with anti-5-HT antibodies, which label serotonergic axons, descending serotonergic axons could be detected in the spinal cord segments between the lesions, but not in the lumbar spinal cord (FIG. 1C). Thus, a relay zone remains between and around the lesions (T7 and T10) where descending axons terminate, and where some propriospinal neurons maintain their connections with lumbar spinal neurons (see herein below).
This double hemisection SCI model was used to seek small molecule compounds that could reactivate the spared, but dormant, spinal connections by monitoring hindlimb motor performance during over-ground locomotion. To this end, daily compound treatment was started 1 week after injury and then monitored the BMS scores approximately 24 hours after the previous day's compound treatment on a weekly basis (FIG. 1D). Behavioral outcomes observed at these time points likely reflect sustained effects of the treatment, which are more clinically relevant.
Surgical Procedures. The procedure of T7 and T10 double lateral hemisection was similar to that described elsewhere (Courtine et al., 2008; van den Brand et al., 2012). Briefly, a midline incision was made over the thoracic vertebrae, followed by a T7-10 laminectomy. For the T7 right side over-hemisection, a scalpel and micro-scissors were carefully used to interrupt the bilateral dorsal column at T7, and ensured no sparing of ventral pathways on the contralateral side (FIG. 1A). For the T10 left hemisection, a scalpel and micro-scissors were carefully used to interrupt only the left side of the spinal cord until the midline. The muscle layers were then sutured, and the skin was secured with wound clips. All animals received post hoc histological analysis, and those with spared 5HT axons at the lumbar spinal cord (L2-5) were excluded for behavioral analysis (FIG. 7).
(§1) Behavioral Experiments. Motor function was evaluated with a locomotor open field rating scale on the Basso Mouse Scale (BMS). For transient pharmacological treatments, ten to fifteen minutes (van den Brand et al., 2012) prior to behavioral tests (grounding walking, all of which were performed individually), mice received systematic administration (i.p.) of the neural modulators listed above. It is important to note that with a single intraperitoneal injection, plasma CNO levels peak at 15 min and become very low by 2 h after injection (Guettier et al., 2009). For chronic pharmacological treatments, 24 hours prior to behavioral tests, mice received systematic administration of the compounds listed above. All behavioral tests were completed within 1-3 hours. For detailed hindlimb kinematic analysis, mice from different groups were placed in the MotoRater (TSE Systems, (Zorner et al., 2010)), and all kinematic analysis was performed based on data collected by the MotoRater.

[2] = test system: mice with a complete T8 spinal cord transection; assay: BMS open field locomotion after complete T8 spinal cord transection; type: in vivo, mouse; conditions: complete T8 transection; same treatment as in staggered lesion; FIG. 7E
Excerpt: CLP290's effects could result from reactivating the spared dormant descending connections in the spinal cord after SCI. However, it could also act directly on the lumbar spinal cord, independently of descending inputs. […] Therefore, different from this transient effector that acts directly on the lumbar spinal cord, the effects of CLP290 on functional improvement are dependent on spared connections.
The procedure of T8 full transection was similar to that described elsewhere (Courtine et al., 2009). Briefly, a midline incision was made over the thoracic vertebrae, followed by a T8 laminectomy. The complete T8 transection was then performed carefully using both a scalpel and micro-scissors. The muscle layers were then sutured and the skin was secured with wound clips.
as §1

[3] = test system: propriospinal and brain-derived descending axons; assay: Axon regrowth tracing: retrograde HiRet-mCherry, anterograde AAV-ChR2, 5-HT immunohistochemistry; type: in vivo, mouse
Experimental: To test these possibilities, it was determined whether CLP290 increased the regrowth of spared propriospinal axons, and/or their connecting axons from the brain. To analyze neuronal projections to the hindlimb locomotor control center in each condition, a retrograde tracing pseudotyped lentiviral vector (HiRet) expressing mCherry (HiRet-mCherry) (Kato et al., 2011; Wang et al., 2017; Liu et al., 2017) was injected into the lumbar enlargement (L2-L4). At 2 weeks after injury, most retrogradely labeled neurons were found in the spinal cord segments between and around the lesions, with few above the lesion and none in the brain ([…]). […] Similarly, the sprouting of serotonergic axons detected by 5-HT immunohistochemistry was also not affected by CLP290 treatment (FIG. 9D-9F). Thus, it is unlikely that CLP290 acts by promoting the regrowth of brain-derived descending axons into the relay zone, or propriospinal axons projecting to the lumbar spinal cord.
For reticulospinal tracing experiments (procedure was described previously (Esposito et al., 2014)), AAV2/8-ChR2-YFP and AAV2/8-ChR2-mCherry were injected into the mouse right and left reticular formation in the brain stem respectively. For CST tracing experiments (procedure was described previously (Liu et al., 2010; Liu et al., 2017)), AAV2/8-ChR2-mCherry was injected to the mouse right sensorimotor cortex (all AAV titers were adjusted to 0.5-5×10^13 copies/ml for injection, produced by The Viral Core, Boston Children's Hospital). For lumbar level retrograde tracing, vectors of HiRet-mCherry (lenti-virus titers were adjusted to 1.6-2×10^12 copies/ml for injection) were constructed based on the HiRet-lenti backbone (Kinoshita et al., 2012). Injection procedure was described previously (Wang et al., 2017), in which HiRet-mCherry is injected into left or right lumbar spinal cord from segments 2-4.
Spinal cord transverse and horizontal sections were imaged with a confocal laser-scanning microscope (Zeiss 700 or Zeiss 710). To quantify and compare fluorescence intensity of: reticular spinal tract projections (RFP^+ and GFP^+), and corticospinal tract (CST) projections (GFP^+), at different transverse spinal cord segments sections (FIGS. 10A and 10C); as well as 5HT axonal staining (FIG. 10B). All images, used for analysis under multiple conditions, were taken using the same optical parameters to avoid saturation. Densitometry measurements were taken by using FIJI software, after being sub-thresholded to the background and normalized by area.
aTo quantify and compare the retrograde HiRet-marked cell body of spinal neurons in different treatments, all images were decomposed to individual channels and planes. They were aligned and quantified using custom-developed MATLAB codes. […]

`O=C1N=C(N2CCCCN2)S/C1=C\c1ccc(F)cc1OC(=O)N1CCCC1` [CLP290, [5-Fluoro-2-[(Z)-(2-hexahydropyridazin-1-yl-4-oxo-thiazol-5-ylidene)methyl]phenyl] pyrrolidine-1-carboxylate] was tested, and the “mice that recovered consistent hindpaw plantar placement and weight-bearing stepping” value ([1]; 9 weeks post staggered injury, FIG. 1F) was 80%, the “additional functional recovery (BMS) from accompanying CLP290 treatment” value ([1]; Vgat-Cre mice with AAV-FLEX-KCC2, CLP290 versus vehicle, FIG. 10E) was “did not significantly enhance functional recovery at most time points” and the “time BMS scores remained significantly higher than controls after stopping treatment” value ([1]; after withdrawal following 10-week treatment, FIG. 1G) was 1-2 weeks. For the same compound, the “stepping ability / functional recovery (BMS), chronic compound treatment” value ([1]; daily i.p. treatment from 1 week after injury, BMS about 24 h after previous dose, FIG. 1E, 7A) was “induced sustained functional recovery”, the “time at which functional recovery (BMS) first appeared” value ([1]; daily i.p. treatment started 1 week after injury, BMS about 24 h after previous dose, FIG. 1E) was 4-5 weeks and the “time from which functional recovery (BMS) became significant” value ([1]; weeks after treatment, daily i.p. treatment, BMS about 24 h after previous dose, FIG. 1E) was 7 weeks. The “functional recovery (BMS), chronic treatment” value [2] was “failed to promote any significant functional recovery”, the “sprouting of serotonergic axons” value ([3]; 5-HT immunohistochemistry, FIG. 9D-9F) was “not affected” and the “number of retrogradely traced neurons in the spinal cord” value ([3]; HiRet-mCherry injected into L2-L4, 10 weeks after injury, FIGS. 8C and 8F) was “did not affect these measures”. The “sprouting of descending brainstem reticulospinal axons” value ([3]; anterograde tracing with AAV-ChR2-mCherry and AAV-ChR2-GFP, 2 and 10 weeks after injury, FIG. 9A-9C) was “failed to reveal increased sprouting” and the “sprouting of corticospinal axons” value ([3]; anterograde tracing, 2 and 10 weeks after injury, FIG. 9G-9I) was “failed to reveal increased sprouting”.
